The record followed here is paper PMC11311138, “Design of Promising Thiazoloindazole-Based Acetylcholinesterase Inhibitors Guided by Molecular Docking and Experimental Insights” (ACS Chemical Neuroscience, 2024).

The target of one experiment is equine serum BuChE (Equus caballus, UniProt P81908). As to the kind of experiment: biochemical. Conditions: pH 8, 37 °C, triplicate.
Experiment [1] deals with Electrophorus electricus AChE (eeAChE) (Electrophorus electricus, UniProt O42275). As to the kind of experiment: biochemical. It counts as biochemical. The conditions noted are these: pH 8, 37 °C, triplicate.
Chain of Electrophorus electricus AChE (eeAChE) (O42275 24-633): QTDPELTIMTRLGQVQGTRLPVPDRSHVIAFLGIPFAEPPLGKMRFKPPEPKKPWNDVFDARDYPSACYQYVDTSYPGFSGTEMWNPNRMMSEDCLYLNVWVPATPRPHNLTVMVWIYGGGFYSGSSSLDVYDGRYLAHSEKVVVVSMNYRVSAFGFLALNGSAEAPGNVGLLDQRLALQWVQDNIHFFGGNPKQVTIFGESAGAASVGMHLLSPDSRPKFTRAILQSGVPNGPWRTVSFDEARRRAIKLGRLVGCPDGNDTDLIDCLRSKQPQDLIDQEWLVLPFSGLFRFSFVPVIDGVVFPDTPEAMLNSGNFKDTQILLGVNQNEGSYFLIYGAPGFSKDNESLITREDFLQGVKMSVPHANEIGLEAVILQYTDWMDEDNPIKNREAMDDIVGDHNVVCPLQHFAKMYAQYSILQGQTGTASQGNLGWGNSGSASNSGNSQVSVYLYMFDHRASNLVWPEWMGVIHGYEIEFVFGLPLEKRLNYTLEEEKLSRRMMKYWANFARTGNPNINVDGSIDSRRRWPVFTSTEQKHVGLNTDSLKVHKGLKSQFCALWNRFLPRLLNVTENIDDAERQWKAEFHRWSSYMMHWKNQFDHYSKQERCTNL

Chain of equine serum BuChE (P81908 whole entry): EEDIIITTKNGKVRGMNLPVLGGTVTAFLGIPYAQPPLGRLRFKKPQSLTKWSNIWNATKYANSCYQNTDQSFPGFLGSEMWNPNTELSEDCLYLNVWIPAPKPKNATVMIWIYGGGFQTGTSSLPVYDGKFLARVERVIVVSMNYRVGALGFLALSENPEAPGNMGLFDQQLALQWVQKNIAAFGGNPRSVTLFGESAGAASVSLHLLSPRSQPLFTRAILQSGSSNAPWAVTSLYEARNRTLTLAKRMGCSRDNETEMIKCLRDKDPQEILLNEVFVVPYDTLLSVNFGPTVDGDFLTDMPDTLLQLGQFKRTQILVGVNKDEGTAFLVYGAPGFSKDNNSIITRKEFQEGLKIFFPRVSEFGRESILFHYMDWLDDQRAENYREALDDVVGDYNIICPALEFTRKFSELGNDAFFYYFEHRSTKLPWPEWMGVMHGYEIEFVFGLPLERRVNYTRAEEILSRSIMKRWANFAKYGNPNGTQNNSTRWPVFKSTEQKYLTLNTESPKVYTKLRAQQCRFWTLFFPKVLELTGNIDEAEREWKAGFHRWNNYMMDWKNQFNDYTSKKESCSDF

`Cn1nc(Cl)c2c3sc(NC(=O)Cn4c5ccccc5c5ccccc54)nc3ccc21` [TI58c, 2-(9H-carbazol-9-yl)-N-(8-chloro-6-methyl-6H-thiazolo[5,4-e]indazol-2-yl)acetamide]: the IC50 (against equine serum BuChE; in experiment [1]) was over 50 µM throughout.
Regarding `Cn1ncc2c3sc(NC(=O)Cn4cc(-c5cc(C(F)(F)F)cc(C(F)(F)F)c5)nn4)nc3ccc21` [TI45a, 2-(4-(3,5-bis(Trifluoromethyl)phenyl)-1H-1,2,3-triazol-1-yl)-N-(6-methyl-6H-thiazolo[5,4-e]indazol-2-yl)acetamide], the IC50 (at equine serum BuChE; in experiment [1]) was over 50 µM in each case.
As for `CCn1ncc2c3sc(NC(=O)Cn4c5ccccc5c5ccccc54)nc3ccc21` [TI58b, 2-(9H-carbazol-9-yl)-N-(6-ethyl-6H-thiazolo[5,4-e]indazol-2-yl)acetamide], the IC50 at equine serum BuChE was over 50 µM. In experiment [1], the “AChE IC50” value is on record as “did not experimentally show any activity against AChE” and the IC50 is over 50 µM.
As to `Cn1nc(Cl)c2c3sc(NC(=O)CCl)nc3ccc21` [6c, 2-Chloro-N-(8-chloro-6-methyl-6H-thiazolo[5,4-e]indazol-2-yl)acetamide], the IC50 against equine serum BuChE was over 50 µM; in experiment [1] it was over 25 µM.
Consider `CCn1ncc2ccc3nc(N)sc3c21` [5d, 1-Ethyl-1H-thiazolo[4,5-g]indazol-7-amine], for which the IC50 (against equine serum BuChE; in experiment [1]) was over 50 µM each time.
For the compound `Cn1ncc2ccc3nc(N)sc3c21` [5c, 1-Methyl-1H-thiazolo[4,5-g]indazol-7-amine], the IC50 (on equine serum BuChE; in experiment [1]) was over 50 µM throughout.
For the compound `CCn1ncc2c3sc(NC(=O)Cn4cc(-c5cc(C(F)(F)F)cc(C(F)(F)F)c5)nn4)nc3ccc21` [TI45b, 2-(4-(3,5-bis(Trifluoromethyl)phenyl)-1H-1,2,3-triazol-1-yl)-N-(6-ethyl-6H-thiazolo[5,4-e]indazol-2-yl)acetamide], the IC50 against equine serum BuChE is over 50 µM; in experiment [1] it was 0.071 ± 0.014 µM.
For the compound `Cn1ncc2c3sc(NC(=O)CCl)nc3ccc21` [6a, 2-Chloro-N-(6-methyl-6H-thiazolo[5,4-e]indazol-2-yl)acetamide], the values for the IC50 (against equine serum BuChE; in experiment [1]) were over 50 µM and 14.3 ± 2.62 µM, respectively.
In the case of `Cn1nc(Cl)c2c3sc(NC(=O)Cn4cc(-c5cc(C(F)(F)F)cc(C(F)(F)F)c5)nn4)nc3ccc21` [TI45c, 2-(4-(3,5-bis(Trifluoromethyl)phenyl)-1H-1,2,3-triazol-1-yl)-N-(8-chloro-6-methyl-6H-thiazolo[5,4-e]indazol-2-yl)acetamide], the IC50 (against equine serum BuChE; in experiment [1]) was over 50 µM throughout.
`CCn1ncc2c3sc(NC(=O)CCl)nc3ccc21` [6b, 2-Chloro-N-(6-ethyl-6H-thiazolo[5,4-e]indazol-2-yl)acetamide]: the IC50 was over 50 µM against equine serum BuChE and 13.2 ± 2.71 µM in experiment [1].
On to `Cn1nc(Cl)c2c3sc(N)nc3ccc21` [5e, 8-Chloro-6-methyl-6H-thiazolo[5,4-e]indazol-2-amine], for which the IC50 (on equine serum BuChE; in experiment [1]) was over 50 µM each time.
Turning to `CCn1ncc2c3sc(NC(=O)CN=[N+]=[N-])nc3ccc21` [7b, 2-Azido-N-(6-ethyl-6H-thiazolo[5,4-e]indazol-2-yl)acetamide], the IC50 against equine serum BuChE was over 50 µM; in experiment [1], 0.54 ± 0.11 µM.
For `Cn1ncc2c3sc(NC(=O)Cn4c5ccccc5c5ccccc54)nc3ccc21` [TI58a, 2-(9H-carbazol-9-yl)-N-(6-methyl-6H-thiazolo[5,4-e]indazol-2-yl)acetamide] the same measures were over 50 µM and over 50 µM.
As to `Cn1ncc2c3sc(NC(=O)CN=[N+]=[N-])nc3ccc21` [7a, 2-Azido-N-(6-methyl-6H-thiazolo[5,4-e]indazol-2-yl)acetamide], the IC50 (against equine serum BuChE; in experiment [1]) was over 50 µM in each case.
For the compound `CCn1ncc2c3sc(N)nc3ccc21` [5b, 6-Ethyl-6H-thiazolo[5,4-e]indazol-2-amine], the IC50 (against equine serum BuChE; in experiment [1]) was over 50 µM each time.
Turning to `Cn1nc(Cl)c2c3sc(NC(=O)CN=[N+]=[N-])nc3ccc21` [7c, 2-Azido-N-(8-chloro-6-methyl-6H-thiazolo[5,4-e]indazol-2-yl)acetamide], the values for the IC50 (on equine serum BuChE; in experiment [1]) were over 50 µM and 2.26 ± 0.09 µM, respectively.
For `Cn1ncc2c3sc(N)nc3ccc21` [5a, 6-Methyl-6H-thiazolo[5,4-e]indazol-2-amine], the IC50 (at equine serum BuChE; in experiment [1]) was over 50 µM each time.

For orientation: IC50 means the concentration that gives 50% inhibition. Read a low IC50 as greater potency.
